The text below walks through data of ChEMBL document CHEMBL1140305, “Three-dimensional quantitative structure-activity relationship analyses of beta-lactam antibiotics and tripeptides as substrates of the mammalian H+/peptide cotransporter PEPT1” (J Med Chem, 2005).

pKi: −log10 of the molar value. Non-standard residues stand in square brackets, D forms with d. Residues, ends and D or L forms follow the SMILES beside them. *: point of attachment. Bip = N[C@@H](Cc1ccc(-c2ccccc2)cc1)C(=O)O; NMeT = CN[C@H](C(=O)O)[C@@H](C)O; OBn = c1ccc(CO*)cc1; Bn = c1ccc(C*)cc1

A word on the pKi: it is the Ki on a negative log10 scale, so that one unit is a factor of ten. A high value points to a small Ki.

One experiment addresses T1, Solute carrier family 15 member 1 (Homo sapiens, UniProt P46059).
T1 sequence (P46059 whole entry): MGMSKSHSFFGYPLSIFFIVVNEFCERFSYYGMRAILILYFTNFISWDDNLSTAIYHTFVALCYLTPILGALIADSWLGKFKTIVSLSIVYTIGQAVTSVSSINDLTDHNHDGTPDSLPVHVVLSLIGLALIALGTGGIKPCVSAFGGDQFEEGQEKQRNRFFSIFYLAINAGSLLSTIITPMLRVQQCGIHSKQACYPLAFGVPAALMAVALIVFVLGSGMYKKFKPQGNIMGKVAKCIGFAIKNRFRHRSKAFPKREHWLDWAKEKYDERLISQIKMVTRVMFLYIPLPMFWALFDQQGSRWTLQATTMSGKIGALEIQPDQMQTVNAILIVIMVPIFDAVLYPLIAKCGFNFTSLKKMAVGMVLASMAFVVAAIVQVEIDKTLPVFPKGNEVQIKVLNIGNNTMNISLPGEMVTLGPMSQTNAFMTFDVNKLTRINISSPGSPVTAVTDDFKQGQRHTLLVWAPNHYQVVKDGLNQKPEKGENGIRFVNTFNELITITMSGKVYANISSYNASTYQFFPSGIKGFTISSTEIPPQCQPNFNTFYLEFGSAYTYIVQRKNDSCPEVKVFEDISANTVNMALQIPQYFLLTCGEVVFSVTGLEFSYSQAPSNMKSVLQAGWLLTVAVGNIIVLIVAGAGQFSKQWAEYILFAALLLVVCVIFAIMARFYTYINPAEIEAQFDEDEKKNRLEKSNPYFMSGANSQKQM
In words: Binding affinity against membrane transport protein PEPT1 in human Caco-2 cells. In kind it is cell-based.
Conditions: not given
In general terms: Caco-2 monolayers are a common model of the intestinal barrier.
Turning to `[N-]=[N+]=N[C@H](C(=O)NC1C(=O)N2C(C(=O)O)=CCSC12)c1ccccc1` (stereo partly specified), the pKi is 1.82.

`C[C@H](N)C(=O)N[C@@H](C)C(=O)N[C@@H](C)C(=O)O` showed a negative logarithm of the Ki (pKi) of 3.74.

Consider `C[C@H](N)C(=O)N[C@@H](C)C(=O)N[C@H](C)C(=O)O`, for which the pKi is 2.08.

Take `C[C@@H](N)C(=O)N[C@H](CCCCN)C(=O)O`: the negative-log Ki (pKi) was < 1.52.

Turning to `C[C@H](N)C(=O)NC(=O)C1CCCCC1`, the pKi is 2.82.

`C[C@H](NC(=O)[C@@H](N)Cc1ccc(OCc2ccccc2)cc1)C(=O)O`: the negative logarithm of the Ki (pKi) was 4.05.

Take `C[C@H](N)C(=O)N[C@@H](CCCCN)C(=O)O`: the pKi is 3.68.

As for `C[C@H](N)C(=O)N[C@H](CCCCN)C(=O)O`, the pKi was < 1.52.

`C[C@H](NC(=O)[C@H](Cc1ccccc1)NCc1ccccc1)C(=O)O` showed a pKi of 4.70.

For the compound `C[C@H](N)C(=O)N[C@H](Cc1ccccc1)C(=O)N[C@@H](C)C(=O)O`, the negative logarithm of the Ki (pKi) was 1.72.

Regarding `C[C@H](N)C(=O)N[C@H](C)C(=O)N[C@@H](C)C(=O)O`, the pKi is 1.77.

In turn, `C[C@H](NC(=O)[C@H](C)NOC(=O)[C@@H](C)N)C(=O)O` gave a negative logarithm of the Ki (pKi) of 2.10.

`C[C@@H](N)C(=O)N[C@@H](CCCCN)C(=O)O` showed a pKi of 2.15.

Consider `N[C@@H](Cc1c[nH]c2ccccc12)C(=O)NCC(=O)N[C@@H](Cc1ccc(O)cc1)C(=O)O`, for which the negative logarithm of the Ki (pKi) was 3.62.

Compound `C[C@@H](N)C(=O)N1CCC[C@H]1C(=O)O` gave a pKi of 2.30.

`CC(C)C[C@H](NC(=O)[C@H](Cc1ccccc1)NC(=O)[C@H](C)N)C(=O)O` (H-Ala-Phe-Leu-OH) showed a negative-log Ki (pKi) of 4.00.

In turn, `CC(C)C[C@H](NC(=O)[C@@H]1CCCN1C(=O)[C@H](C)N)C(=O)O` (H-Ala-Pro-Leu-OH) gave a negative-log Ki (pKi) of 3.82.

Consider `C[C@H](NC(=O)[C@@H](N)CC(=O)OCc1ccccc1)C(=O)O` (H-Asp(OBn)-Ala-OH), for which the pKi was 4.05.

As for `NCCCC[C@H](NC(=O)[C@@H](N)CC(=O)O)C(=O)O` (H-Asp-Lys-OH), the pKi was 3.07.

The compound `NCCCC[C@H](NC(=O)[C@@H](N)CCC(=O)O)C(=O)O` (H-Glu-Lys-OH) gave a negative logarithm of the Ki (pKi) of 3.29.

`N[C@@H](CCC(=O)O)C(=O)N[C@@H](Cc1ccccc1)C(=O)N[C@@H](Cc1ccc(O)cc1)C(=O)O` (H-Glu-Phe-Tyr-OH) had a negative logarithm of the Ki (pKi) of 3.70.

Regarding `NCC(=O)N[C@@H](Cc1c[nH]cn1)C(=O)O` (H-Gly-His-OH), the pKi was 2.39.

As to `CC[C@H](C)[C@H](N)C(=O)N[C@@H](Cc1ccc(O)cc1)C(=O)O` (H-Ile-Tyr-OH), the pKi is 3.92.

Turning to `CC[C@H](C)[C@H](N)C(=O)N[C@H](C(=O)N[C@@H](Cc1ccc(O)cc1)C(=O)O)C(C)C` (H-Ile-Val-Tyr-OH), the pKi was 3.70.

Take `CC(C)C[C@H](N)C(=O)N[C@@H](C)C(=O)N[C@@H](CCCNC(=N)N)C(=O)O` (H-Leu-Ala-Arg-OH): the pKi was 3.96. This pKi lies 0.26 log units higher than the previous one.

On to `CC(C)C[C@H](N)C(=O)N[C@@H](CCCN=C(N)N)C(=O)N1CCC[C@H]1C(=O)O` (H-Leu-Arg-Pro-OH), for which the pKi was 3.52. This pKi lies 0.44 log units lower than the previous one.

Consider `CC(C)C[C@H](N)C(=O)NCC(=O)NCC(=O)O` (H-Leu-Gly-Gly-OH), for which the negative-log Ki (pKi) was 3.41.

For the compound `CC(C)C[C@H](N)C(=O)N1CCC[C@H]1C(=O)N[C@@H](CCCN=C(N)N)C(=O)O` (H-Leu-Pro-Arg-OH), the pKi was 4.00.

Turning to `CC(C)C[C@H](N)C(=O)N1CCC[C@H]1C(=O)O` (H-Leu-Pro-OH), the pKi was 3.74.

Compound `CC(C)C[C@H](NC(=O)[C@H]([C@@H](C)O)N(C)C(=O)[C@@H](N)CC(C)C)C(=O)O` (H-Leu-[NMeT]-Leu-OH) gave a pKi of 3.96.

On to `C[C@H](NC(=O)[C@@H](N)CCCCN)C(N)=O` (H-Lys-Ala-NH2), for which the pKi was 2.19.

`C[C@H](NC(=O)[C@@H](N)CCCCN)C(=O)O` (H-Lys-Ala-OH) had a negative-log Ki (pKi) of 3.47.

For `NCCCC[C@H](N)C(=O)N[C@@H](CCC(=O)O)C(=O)O` (H-Lys-Glu-OH), the pKi was 2.89.

`CC(C)C[C@H](NC(=O)[C@H](CC(C)C)NC(=O)[C@@H](N)Cc1ccccc1)C(=O)O` (H-Phe-Leu-Leu-OH): the negative-log Ki (pKi) is 3.85. Compared with the last compound, the pKi is 0.96 log units higher.

`N=C(N)NCCC[C@H](NC(=O)[C@@H]1CCCN1)C(=O)O` (H-Pro-Arg-OH) had a pKi of 2.60.

In turn, `O=C(O)CNC(=O)CNC(=O)[C@@H]1CCCN1` (H-Pro-Gly-Gly-OH) gave a negative logarithm of the Ki (pKi) of 1.80.

Turning to `NCCCC[C@H](NC(=O)[C@H](Cc1ccccc1)NC(=O)[C@@H]1CCCN1)C(=O)O` (H-Pro-Phe-Lys-OH), the pKi is 2.70.

The compound `O=C(O)[C@@H]1CCCN1C(=O)[C@@H]1CCCN1` (H-Pro-Pro-OH) had a negative logarithm of the Ki (pKi) of 2.92.

`C[C@H](NC(=O)[C@@H](N)COCc1ccccc1)C(=O)O` (H-Ser(Bn)-Ala-OH) showed a negative logarithm of the Ki (pKi) of 4.05.

Take `C[C@@H](O)[C@H](N)C(=O)N[C@@H](CCCCN)C(=O)N[C@@H](Cc1ccc(O)cc1)C(=O)O` (H-Thr-Lys-Tyr-OH): the negative-log Ki (pKi) was 2.96.

Turning to `C[C@H](NC(=O)[C@@H](N)Cc1c[nH]c2ccccc12)C(=O)O` (H-Trp-Ala-OH), the negative-log Ki (pKi) is 3.80. This pKi lies 0.84 log units higher than the previous one.

Consider `N[C@@H](Cc1c[nH]c2ccccc12)C(=O)N[C@@H](Cc1c[nH]c2ccccc12)C(=O)N[C@@H](Cc1c[nH]c2ccccc12)C(=O)O` (H-Trp-Trp-Trp-OH), for which the pKi is 3.77.

As to `N[C@@H](Cc1ccc(O)cc1)C(=O)NCC(=O)NCC(=O)O` (H-Tyr-Gly-Gly-OH), the pKi was 3.46.

As to `N[C@@H](Cc1ccc(O)cc1)C(=O)N[C@@H](Cc1ccccc1)C(=O)O` (H-Tyr-Phe-OH), the negative logarithm of the Ki (pKi) was 3.85.

`CC[C@H](C)[C@H](NC(=O)[C@@H]1CCCN1C(=O)[C@@H](N)Cc1ccc(O)cc1)C(=O)O` (H-Tyr-Pro-Ile-OH): the negative logarithm of the Ki (pKi) is 3.60.

As to `C[C@@H](NC(=O)[C@@H](N)Cc1ccc(O)cc1)C(=O)NCC(=O)O` (H-Tyr-[dA]-Gly-OH), the negative logarithm of the Ki (pKi) was 1.85.

Turning to `CC(C)C[C@H](NC(=O)[C@H](C)NC(=O)[C@@H](N)C(C)C)C(=O)O` (H-Val-Ala-Leu-OH), the pKi was 3.85.

Consider `C[C@H](NC(=O)[C@@H](N)Cc1ccc(-c2ccccc2)cc1)C(=O)O` (H-[Bip]-Ala-OH), for which the pKi is 5.00.

For `CC(C)C[C@@H](N)C(=O)NCC(=O)NCC(=O)O` (H-[dL]-Gly-Gly-OH), the pKi was 1.60.

`CC(C)[C@H](NC(=O)[C@H](N)Cc1ccc(O)cc1)C(=O)NCC(=O)O` (H-[dY]-Val-Gly-OH): the negative-log Ki (pKi) is 1.85.

`C[C@H](N)C(=O)N1CCCC1C(=O)O` (single isomer, unassigned) had a negative logarithm of the Ki (pKi) of 1.82.

For the compound `CSCC[C@H](NC(=O)[C@H](CCSC)NC(=O)[C@@H](N)CCSC)C(=O)O` (stereo in doubt; 10), the pKi was 4.00.

Regarding `C[C@H](N)C(=O)N[C@@H](C)C(=O)O` (stereo in doubt; 47), the negative-log Ki (pKi) is 2.68. This pKi lies 1.32 log units lower than the previous one.

With `O=C(O)C[C@H](NC(=O)[C@@H]1CCCN1)C(=O)O` (stereo in doubt; 64), the pKi is 2.01.

Compound `C[C@H](N)C(=O)N[C@@H](C)C(=O)O` (stereo in doubt; 110) showed a pKi of 3.85.

Consider `CSCC[C@H](NC(=O)[C@H](CCSC)NC(=O)[C@@H](N)CCSC)C(=O)O` (stereo in doubt; 119), for which the negative-log Ki (pKi) is 3.28.

On to `Cc1nnc(SCC2=C(C(=O)O)N3C(=O)[C@@H](NC(=O)Cn4cnnn4)[C@H]3SC2)s1` [CEFAZOLIN], for which the pKi is < 1.52.

The compound `CO[C@@]1(NC(=O)Cc2cccs2)C(=O)N2C(C(=O)O)=C(COC(N)=O)CS[C@@H]21` [CEFOXITIN] gave a negative-log Ki (pKi) of 2.00.

As to `COCC1=C(C(=O)O)N2C(=O)[C@@H](NC(=O)/C(=N\OC)c3csc(N)n3)[C@H]2SC1` [CEFPODOXIME], the negative logarithm of the Ki (pKi) was < 1.52.

`CC1=C(C(=O)O)N2C(=O)[C@@H](NC(=O)[C@H](N)C3=CCC=CC3)[C@H]2SC1` [CEPHRADINE] showed a negative-log Ki (pKi) of 2.01.

`Cc1onc(-c2ccccc2Cl)c1C(=O)N[C@@H]1C(=O)N2[C@@H]1SC(C)(C)[C@@H]2C(=O)O` [CLOXACILLIN] had a pKi of 2.60.

In the case of `Cc1onc(-c2c(F)cccc2Cl)c1C(=O)N[C@@H]1C(=O)N2[C@@H]1SC(C)(C)[C@@H]2C(=O)O` [FLOXACILLIN], the negative-log Ki (pKi) was 2.49. This pKi and that of the compound before are within 0.2 log units of each other.

The compound `CC1(C)S[C@@H]2[C@H](NC(=O)COc3ccccc3)C(=O)N2[C@H]1C(=O)O` [PENICILLIN V] showed a negative-log Ki (pKi) of 1.68.

With `CCN1CCN(C(=O)N[C@@H](C(=O)N[C@@H]2C(=O)N3[C@@H]2SC(C)(C)[C@@H]3C(=O)O)c2ccccc2)C(=O)C1=O` [PIPERACILLIN], the pKi is < 1.52.

The same experiment, now with this note: caco-2.
With `CC(C)[C@H](N)C(=O)N1CCC[C@H]1C(=O)N1CCC[C@@H]1C(=O)O`, the pKi was 2.37.

Turning to `O=C(O)C[C@H](NC(=O)[C@@H]1CCCN1)C(=O)O` (stereo in doubt; 121), the pKi is 2.01.
